Consider one compound from patent US6740335B1, “Liposomal camptothecin formulations” (priority 1997, dated 2004).

Where a name gives a salt, the structure may show the parent alone.

As usually defined, the IC50 is the midpoint of a concentration-inhibition curve.

Series [1] concerns H460 (Lung, Non-Small Cell). The series can be described thus: 3H-thymidine incorporation cytotoxicity assay, H460. The class given is cell-based, human. To be noted: Homo sapiens, NCI-H460, 42 h; read-out: Median IC50. The protocol: (§1) In vitro efficacy screening has been performed using GI147211 and liposomal formulations of GI147211. […] Standard tumor cell-based cytototoxicity assays assessing ^3H-thymidine incorporation were performed.
(§2) Tumor cells were seeded into 96-well tissue culture plates (1×10^4 cells/well)≡4 h prior to experimentation. […] Positive and negative (Tris treated) control groups were included on each assay plate. Tumor cells were then labeled with 0.25 μCi of [methyl-^3H] thymidine and incubated for 42 h under tissue culture conditions (37° C., 5% CO2, 100% relative humidity), except for C6, U251, A673 and B16-F1 cells which were incubated for 24 h. Cells were then lysed, harvested onto glass-fiber filters and unincorporated [methyl-^3H] thymidine removed by filter washing. Filters were processed for scintillation counting and cpm-^3H/well determined. […] Data are presented from multiple sets of experimentation, involving multiple liposomal formulations of GI147211.

Series [2] has as its system KBV (oralpharyngial carcinoma, vincristine resistant phenotype). As to the kind of experiment: 3H-thymidine incorporation cytotoxicity assay, KBV. The class given is cell-based, human. To be noted: Homo sapiens, 42 h, read-out: Median IC50. The procedure: as §1, §2
In series [3] the test system is LS-513 (Cecum). The series can be described thus: 3H-thymidine incorporation cytotoxicity assay, LS-513. The class given is cell-based, human. To be noted: Homo sapiens, LS-513, 42 h; read-out: Median IC50. The protocol: as §1, §2
Background: Incorporation of labelled thymidine or its analogues reports DNA synthesis.

Series [4] concerns KB Tumor Xenograft. As to the kind of experiment: HSPC vs DSPC liposomal GI147211 repeat-dose study, KB xenograft. To be noted: 14 mg/kg iv, two drug doses. The class given is in vivo, nude mice. An excerpt:
On a day 1 and day 8 dose schedule and after two weeks rest the same cycle of therapy was repeated with doses delivered on day 23 and day 30.

As to `CCC1(O)C(=O)OCc2c1cc1n(c2=O)Cc2c-1nc1cc3c(cc1c2CN1CCN(C)CC1)OCCO3` (stereo in doubt) [GI147211, 7-(4-methylpiperazinomethylene)-10,11-ethylenedioxy-20(S)-camptothecin dihydrochloride], the IC50 in series [1] is 3.61 ng/mL. The IC50 in series [2] was determined as 584 ng/mL. The IC50 in series [3] turned out to be 4.89 ng/mL. For the same compound, in series [4], the “Cures (tumor-free animals at day 60)” value was 0/8, the “Log Cell Kill Index” value is 0.81, the “T − C (to achieve 400% tumor volume increase)” value is listed as 13.4 and the “Toxic Deaths” value was 0/8. Further, in series [4] (day 18), the “% TGI” value worked out at 77.5%.
